Results reported in patent US9481654B2, “Compositions and methods for inhibition of the JAK pathway” (Rigel Pharmaceuticals, Inc., priority 2006, dated 2016).

Experiments:
Assay type in all cases: cell-based
[1] = tested on: IFNγ induced ICAM-1 (CD54) up-regulation in U937 human monocytic cells (JAK/Stat pathway); test: U937 IFNγ ICAM1 FACS Assay; conditions: Table III Example 6, 10 ng/mL IFNγ, 18-24 hours
From the text: A549 lung epithelial cells and U937 cells up-regulate ICAM-1 (CD54) surface expression in response to a variety of different stimuli. Therefore, using ICAM-1 expression as readout, test compound effects on different signaling pathways can be assessed in the same cell type. Stimulation with IL-1β through the IL-1β receptor activates the TRAF6/NFκB pathway resulting in up-regulation of ICAM-1. IFNγ induces ICAM-1 up-regulation through activation of the JAK1/JAK2 pathway. The up-regulation of ICAM-1 can be quantified by flow cytometry across a compound dose curve and EC50 values are calculated. Exemplary assays of this type are described in greater detail in Examples 5 and 6. U937 human monocytic cells up-regulate ICAM-1 (CD54) surface expression in response to a variety of different stimuli. Therefore, using ICAM-1 expression as readout, compound effects on different signaling pathways can be assessed in the same cell type. IFNγ up-regulates ICAM-1 through activation of the JAK/Stat pathway. In this example, the up-regulation of ICAM-1 by IFNγ was assessed. […] The cells were then plated at a concentration of 100,000 cells per 160 μL in 96 well flat bottom plates. The test compounds were then diluted as follows: 10 mM test compound was diluted 1:5 in DMSO (3 μL 10 mM test compound in 12 μL DMSO), followed by a 1:3 serial dilution of test compound in DMSO (6 μL test compound serially diluted into 12 μL DMSO to give 3-fold dilutions). […] For control wells, 4 μL of DMSO was diluted into 76 μL 10% RPMI. […] The cells and compounds were then pre-incubated for 30 minutes at 37° C. with 5% CO2. […] The cells were kept under conditions for stimulation for 18-24 hours at 37° C. with 5% CO2. […] Cells were spun down at 1000 rpm for 5 minutes at 4° C., following which the supernatant was removed. […] The cells were then incubated on ice in the dark for 30 minutes. […] After suspension, the cells were centrifuged at 1000 rpm for 5 min at 4° C. […] Detection was performed using a BD LSR I System Flow Cytometer, purchased from BD Biosciences of San Jose, Calif. The live cells were gated for live scatter and the geometric mean of ICAM-APC was measured (Becton-Dickinson CellQuest software version 3.3, Franklin Lakes, N.J.). Both % live cells and ICAM-1 expression was analyzed. The assays for the test compounds were carried out in parallel with a control compound of known activity.

[2] = tested on: IL-4 stimulated CD23 upregulation in human Ramos B cells (JAK-1/JAK-3, Stat-6); test: Assay for Ramos B-Cell Line Stimulated with IL-4 (CD23 upregulation, FACS); conditions: Table III Example 3
Method in brief: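 Flow cytometry of CD23 staining after 20-24 h IL-4 stimulation (50 units/mL final) of human Ramos B cells in RPMI with 5% serum. Cells, 5×10^4 per point, received compound or DMSO vehicle for 1 h at 37° C prior to stimulation.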

[3] = tested on: primary human T-cells (IL-2 induced proliferation, JAK-1/JAK-3, Stat-5); test: Primary Human T-Cell Proliferation Assay Stimulated with IL-2 (CellTiter-Glo); conditions: Table III Example 4
Method in brief: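 Read-out is intracellular ATP luminescence (CellTiter-Glo) after 72 h at 37 °C of IL-2-driven growth. Cells, pre-stimulated via TCR and CD28 then washed free of IL-2, were resuspended in Yssel's medium, given 80 U/mL IL-2 in the cell suspension plus duplicate compound; unstimulated wells lacked IL-2.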

IC50 ([1]; Homo sapiens, U-937) [nM] | IC50 ([2]; Homo sapiens, Ramos) [nM] | Structure (SMILES) | IC50 [1] [nM] | IC50 [2] [nM] | IC50 [3] [nM] | IC50 ([3]; Homo sapiens, T-cell) [nM]
– | – | Cc1ccc(Nc2ncc(F)c(Nc3ccc(CNS(=O)(=O)c4sc(N)nc4C)cc3)n2)cc1S(N)(=O)=O [Compound I-43, N4-[4-(2-amino-4-methylthiazol-5-yl)sulfonylaminomethyl]phenyl-N2-(3-aminosulfonyl-4-methyl)phenyl-5-fluoro-2,4-pyrimidinediamine] | 37800 | 537 | 1790 | –
– | – | CCS(=O)(=O)NCCc1ccc(Nc2nc(Nc3ccc(S(N)(=O)=O)cc3)ncc2F)cc1 [Compound I-14, N2-(4-aminosulfonyl)phenyl-N4-[4-(2-ethylsulfonylamino)ethyl]phenyl-5-fluoro-2,4-pyrimidinediamine] | 5270 | 144 | 835 | –
– | – | Cc1cnc(Nc2ccc(S(N)(=O)=O)cc2)nc1Nc1ccc(CCNS(=O)(=O)C2CC2)cc1 [Compound I-53, N2-(4-aminosulfonyl)phenyl-N4-[4-(2-cyclopropylsulfonylamino)ethyl]phenyl-5-methyl-2,4-pyrimidinediamine] | 604 | 131 | 175 | –
– | – | Cc1cnc(Nc2ccc(S(N)(=O)=O)cc2)nc1Nc1ccc(CN(C)S(=O)(=O)C2CC2)cc1 [Compound I-127, N2-(4-aminosulfonyl)phenyl-N4-[4-(N-cyclopropylsulfonyl-N-methyl)aminomethyl]phenyl-5-methyl-2,4-pyrimidinediamine] | 616 | 126 | 233 | –
– | – | CCC(=O)N(Cc1ccc(Nc2nc(Nc3ccc(S(N)(=O)=O)cc3)ncc2C)cc1)S(=O)(=O)C1CC1 [Compound I-167, N2-(4-aminosulfonyl)phenyl-N4-[4-(N-cyclopropylsulfonyl-N-propionyl)aminomethyl]phenyl-5-methyl-2,4-pyrimidinediamine] | 587 | 132 | 116 | –
– | – | CCS(=O)(=O)N[C@H](C)c1ccc(Nc2nc(Nc3ccc(C)c(S(N)(=O)=O)c3)ncc2F)cc1 [Compound I-31, N2-(3-aminosulfonyl-4-methyl)phenyl-N4-[4-(1R-ethylsulfonylamino)ethyl]phenyl-5-fluoro-2,4-pyrimidinediamine] | 1020 | 104 | 283 | –
– | – | NS(=O)(=O)c1cccc(Nc2ncc(F)c(Nc3cccc(CNS(=O)(=O)C4CC4)c3)n2)c1 [Compound I-33, N2-(3-aminosulfonyl)phenyl-N4-(3-cyclopropylsulfonylaminomethyl)phenyl-5-fluoro-2,4-pyrimidinediamine] | 1410 | 102 | 314 | –
– | – | Cc1cnc(Nc2ccc(S(=O)(=O)NC(C)C)cc2)nc1Nc1ccc(CNS(=O)(=O)C2CC2)cc1 [Compound I-172, N4-(4-cyclopropylsulfonylaminomethyl)phenyl-N2-(4-isopropylaminosulfonyl)phenyl-5-methyl-2,4-pyrimidinediamine] | 123 | 52.1 | 81 | –
– | – | CCCNS(=O)(=O)c1cc(Nc2ncc(C)c(Nc3cccc(CNS(=O)(=O)C4CC4)c3)n2)ccc1C [Compound I-215, N4-(3-cyclopropylsulfonylaminomethyl)phenyl-5-methyl-N2-(4-methyl-3-propylaminosulfonyl)phenyl-2,4-pyrimidinediamine] | 385 | 132 | 116 | –
– | – | Cc1cnc(Nc2ccc(S(=O)(=O)NCC3CC3)cc2)nc1Nc1ccc(CNS(=O)(=O)C2CC2)cc1 [Compound I-179, N2-(4-cyclopropylmethylaminosulfonyl)phenyl-N4-(4-cyclopropylsulfonylaminomethyl)phenyl-5-methyl-2,4-pyrimidinediamine] | 365 | 45.9 | 290 | –
4530 | 227 | C#CCNS(=O)(=O)Cc1cccc(Nc2nc(Nc3cccc(S(N)(=O)=O)c3)ncc2F)c1 [Compound I-3, N2-(3-Aminosulfonylphenyl)-5-fluoro-N4-[3-(prop-2-ynylaminosulfonylmethyl)phenyl]-2,4-pyrimidinediamine] | – | – | – | 458
– | – | Cc1cnc(Nc2cccc(S(=O)(=O)NCc3ccncc3)c2)nc1Nc1ccc(CNS(=O)(=O)C2CC2)cc1 [Compound I-169, N4-(4-cyclopropylsulfonylaminomethyl)phenyl-5-methyl-N2-[3-(4-pyridylmethyl)aminosulfonyl]phenyl-2,4-pyrimidinediamine] | 478 | 140 | 206 | –
– | – | CCCNS(=O)(=O)c1ccc(Nc2ncc(C)c(Nc3ccc(CNS(=O)(=O)C4CC4)cc3)n2)cc1 [Compound I-177, N4-(4-cyclopropylsulfonylaminomethyl)phenyl-5-methyl-N2-(4-propylaminosulfonyl)phenyl-2,4-pyrimidinediamine] | 107 | 17.7 | 160 | –
– | – | CNS(=O)(=O)c1ccc(Nc2ncc(C)c(Nc3ccc(CNS(=O)(=O)C4CC4)cc3)n2)cc1 [Compound I-163, N4-(4-cyclopropylsulfonylaminomethyl)phenyl-5-methyl-N2-(4-methylaminosulfonyl)phenyl-2,4-pyrimidinediamine] | 143 | 46.7 | 52.7 | –
– | – | CCNS(=O)(=O)c1ccc(Nc2ncc(C)c(Nc3cccc(CNS(=O)(=O)C4CC4)c3)n2)cc1 [Compound I-212, N4-(3-cyclopropylsulfonylaminomethyl)phenyl-N2-(4-ethylaminosulfonyl)phenyl-5-methyl-2,4-pyrimidinediamine] | 215 | 236 | 160 | –
– | – | Cc1ccc(Nc2ncc(C)c(Nc3cccc(CNS(=O)(=O)C4CC4)c3)n2)cc1S(=O)(=O)NC(C)C [Compound I-209, N4-(3-cyclopropylsulfonylaminomethyl)phenyl-N2-(3-isopropylaminosulfonyl-4-methyl)phenyl-5-methyl-2,4-pyrimidinediamine] | 529 | 113 | 131 | –
– | – | Cc1cnc(Nc2ccc(S(N)(=O)=O)cc2)nc1Nc1cccc(CNS(=O)(=O)C2CC2)c1 [Compound I-56, N2-(4-aminosulfonyl)phenyl-N4-(3-cyclopropylsulfonylaminomethyl)phenyl-5-methyl-2,4-pyrimidinediamine] | 726 | 162 | 310 | –
– | – | CCS(=O)(=O)NCc1ccc(Nc2nc(Nc3ccc(S(N)(=O)=O)cc3)ncc2F)cc1 [Compound I-8, N2-(4-aminosulfonyl)phenyl-N4-(4-ethylsulfonylaminomethyl)phenyl-5-fluoro-2,4-pyrimidinediamine] | 3250 | 235 | 275 | –
– | – | Cc1cnc(Nc2ccc(S(N)(=O)=O)cc2)nc1Nc1ccc(CNS(=O)(=O)CC(F)(F)F)cc1 [Compound I-96, N2-(4-aminosulfonyl)phenyl-5-methyl-N4-(4-trifluoroethylsulfonylaminomethyl)phenyl-2,4-pyrimidinediamine] | 3670 | 74.4 | 105 | –
– | – | CCC(=O)NS(=O)(=O)c1ccc(Nc2ncc(C)c(Nc3ccc(CNS(=O)(=O)C4CC4)cc3)n2)cc1 [Compound I-83, N4-(4-cyclopropylsulfonylaminomethyl)phenyl-5-methyl-N2-(4-propionylaminosulfonyl)phenyl-2,4-pyrimidinediamine] | 266 | 181 | 152 | –
– | – | Cc1ccc(Nc2ncc(F)c(Nc3ccc(CNS(=O)(=O)C4CC4)cc3)n2)cc1S(N)(=O)=O [Compound I-25, N2-(3-aminosulfonyl-4-methyl)phenyl-N4-(4-cyclopropylsulfonylaminomethyl)phenyl-5-fluoro-2,4-pyrimidinediamine] | 363 | 69 | 63.9 | –
